Test results published in PubChem BioAssay (NCI).
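Compound exposure: 48 hours, 5 concentrations, 96-well plates. TGI is the concentration that stops growth completely.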

What was measured:
Assay in all cases: DTP human tumour cell line panel, 48 h
MCF7 breast = test system: MCF7 breast
SNB-19 CNS = test system: SNB-19 CNS
SF-539 CNS = test system: SF-539 CNS
MALME-3M melanoma = test system: MALME-3M melanoma
MDA-MB-231 breast = test system: MDA-MB-231 breast
MDA-N = test system: MDA-N
U251 CNS = test system: U251 CNS
SK-MEL-5 melanoma = test system: SK-MEL-5 melanoma
RXF 393 renal = test system: RXF 393 renal
PC-3 prostate = test system: PC-3 prostate
HCT-116 colon = test system: HCT-116 colon
M14 melanoma = test system: M14 melanoma
SNB-75 CNS = test system: SNB-75 CNS
SF-295 CNS = test system: SF-295 CNS
NCI-H226 lung = test system: NCI-H226 lung
HL-60(TB) leukemia = test system: HL-60(TB) leukemia
RPMI-8226 leukemia = test system: RPMI-8226 leukemia
CCRF-CEM leukemia = test system: CCRF-CEM leukemia
DU-145 prostate = test system: DU-145 prostate
SK-MEL-2 melanoma = test system: SK-MEL-2 melanoma
SN12C renal = test system: SN12C renal
UO-31 renal = test system: UO-31 renal
EKVX NSCLC = test system: EKVX NSCLC
SK-MEL-28 melanoma = test system: SK-MEL-28 melanoma
MDA-MB-435 = test system: MDA-MB-435
HCC-2998 colon = test system: HCC-2998 colon
NCI-H23 lung = test system: NCI-H23 lung
K-562 leukemia = test system: K-562 leukemia
T-47D breast = test system: T-47D breast
IGROV1 ovarian = test system: IGROV1 ovarian
HT29 colon = test system: HT29 colon
COLO 205 colon = test system: COLO 205 colon
OVCAR-4 ovarian = test system: OVCAR-4 ovarian
HOP-92 NSCLC = test system: HOP-92 NSCLC
HCT-15 colon = test system: HCT-15 colon
KM12 colon = test system: KM12 colon
OVCAR-3 ovarian = test system: OVCAR-3 ovarian
HOP-62 NSCLC = test system: HOP-62 NSCLC
UACC-257 melanoma = test system: UACC-257 melanoma
MOLT-4 leukemia = test system: MOLT-4 leukemia
CAKI-1 renal = test system: CAKI-1 renal
A549 NSCLC = test system: A549 NSCLC
NCI-H522 lung = test system: NCI-H522 lung
A498 renal = test system: A498 renal
SK-OV-3 ovarian = test system: SK-OV-3 ovarian
LOX IMVI melanoma = test system: LOX IMVI melanoma
UACC-62 melanoma = test system: UACC-62 melanoma
SW-620 colon = test system: SW-620 colon
NCI/ADR-RES ovarian = test system: NCI/ADR-RES ovarian
TK-10 renal = test system: TK-10 renal
ACHN renal = test system: ACHN renal
786-0 renal = test system: 786-0 renal
OVCAR-8 ovarian = test system: OVCAR-8 ovarian

Measured: TGI

Nc1nc(Nc2ccccc2)c2[nH]cnc2n1
81.7 µM: A498 renal
92.4 µM: HOP-92 NSCLC
> 100 µM: all other assays above
